Patent US12479820B2, “Pyridin-3-yl derivatives” (Idorsia Pharmaceuticals Ltd, priority 2019, dated 2025)

molecular target: T1, human LPA1 receptor (Homo sapiens, UniProt Q92633); test: Beta-arrestin recruitment assay to determine IC50 values for human LPAR1; assay type: cell-based; conditions: Tango EDG2-bla U2OS cells, antagonist assay, LPA 18:1 500 nM final
T1 construct: TEV protease site; Gal4-VP16 transcription factor; host or cells: Tango EDG2-bla U2OS cells
Excerpt: Beta-Arrestin Recruitment Assay to Determine IC50 Values for Human LPAR1
The Tango™ EDG2-bla U2OS cells are obtained from Invitrogen. These cells contain the human LPA1 receptor cDNA linked to a TEV protease site and a Gal4-VP16 transcription factor integrated into the Tango™ GPCR-bla U2OS parental cell line. This parental cell line stably expresses a beta-arrestin/TEV protease fusion protein and the beta-lactamase (bla) reporter gene under the control of a UAS response element. Upon LPA (agonist) binding, LPA1 receptor gets activated, leading to arrestin-protease recruitment and proteolytic release of the transcription factor: The transcription factor then regulates transcription of a beta-lactamase reporter construct, which is measured upon addition of the live-cell substrate.
10′000 Tango™ EDG2-bla U2OS cells are seeded in a 384-well black with clear bottom plate in 30 μl Freestyle 293 Expression Medium (Invitrogen) and incubated for 20 h at 37° C., 5% CO2. For antagonist assays, 5 μl of test compound (dilution series in DMSO/Freestyle 293 Expression medium/0.1% fatty acid free BSA (Sigma)) or buffer control are added per well and incubated for 30 min at 37° C., 5% CO2. 5 μl of LPA 18:1 (500 nM final) (solution in Freestyle 293 Expression medium/0.1% fatty acid free BSA (Sigma)) are added per well and the plate incubated for 16 h at 37° C., 5% CO2. Cells are then loaded with LiveBLAzer-FRET™ B/G Substrate (Invitrogen) for 2 h in the dark and the fluorescence emission at 460 nm and 530 nm is measured using the SynergyMx reader (BioTek). Following the background subtraction from both channels, the 460/530 nm emission ratio for each well is calculated, then plotted and fitted to a 4-parameter logistic function to obtain IC50 values. IC50 is the concentration of antagonist inhibiting 50% of the maximal response.

T1 sequence (Q92633 whole entry, the tested form may be a part): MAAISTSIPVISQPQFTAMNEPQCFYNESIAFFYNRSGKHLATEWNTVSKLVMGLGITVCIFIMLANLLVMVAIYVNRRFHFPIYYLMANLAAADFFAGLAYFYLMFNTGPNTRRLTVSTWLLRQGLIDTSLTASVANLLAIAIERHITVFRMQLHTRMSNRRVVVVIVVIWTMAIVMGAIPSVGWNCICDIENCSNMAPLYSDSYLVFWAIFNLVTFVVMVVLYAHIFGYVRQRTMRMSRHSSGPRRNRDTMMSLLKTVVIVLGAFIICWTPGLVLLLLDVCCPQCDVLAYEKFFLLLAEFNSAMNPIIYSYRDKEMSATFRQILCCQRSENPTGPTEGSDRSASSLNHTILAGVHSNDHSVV

`COC(=O)c1ccc(N2CC(C(=O)Nc3cnc(Cl)cc3OC)(c3ccccc3C(C)C)C2)nn1` [Example 24-24, methyl 6-(3-((6-chloro-4-methoxypyridin-3-yl)carbamoyl)-3-(2-isopropylphenyl)azetidin-1-yl)pyridazine-3-carboxylate] and `COC(=O)c1cnc(N2CC(C(=O)Nc3cnc(Cl)cc3OC)(c3ccccc3C(C)C)C2)nc1` [Example 24-22, methyl 2-(3-((6-chloro-4-methoxypyridin-3-yl)carbamoyl)-3-(2-isopropylphenyl)azetidin-1-yl)pyrimidine-5-carboxylate] are within 1.5-fold of each other in IC50: 0.024 µM for the first, 0.022 µM for the second.

Going from `COCCOC(=O)N1CC(C(=O)Nc2cnc(Cl)cc2OC)(c2ccccc2C(C)C)C1` [Example 23-2, 2-Methoxyethyl 3-((6-chloro-4-methoxypyridin-3-yl)carbamoyl)-3-(2-isopropylphenyl)azetidine-1-carboxylate] to `COc1cc(Cl)ncc1NC(=O)C1(c2ccccc2C(C)C)CN(C(C)=O)C1` [Example 19-2, 1-acetyl-N-(6-chloro-4-methoxypyridin-3-yl)-3-(2-isopropylphenyl)azetidine-3-carboxamide], the IC50 falls from 0.069 µM to 0.019 µM (3.6-fold).

First: COc1cc(Cl)ncc1NC(=O)C1(c2ncccc2C(C)C)CN(S(N)(=O)=O)C1 [Example 21-16, N-(6-chloro-4-methoxypyridin-3-yl)-3-(3-isopropylpyridin-2-yl)-1-sulfamoylazetidine-3-carboxamide]
Second: CCOc1cc(Cl)ncc1NC(=O)C1(c2ccccc2C(C)C)CN(S(N)(=O)=O)C1 [Example 21-3, N-(6-chloro-4-ethoxypyridin-3-yl)-3-(2-isopropylphenyl)-1-sulfamoylazetidine-3-carboxamide]
The IC50 of the first is 6-fold higher: 0.012 µM for the first, 0.002 µM for the second.

Going from `COc1cc(Cl)ncc1NC(=O)C1(c2ccccc2C(C)C)CN(C(=O)N(C)C)C1` [Example 22-15, N^3-(6-chloro-4-methoxypyridin-3-yl)-3-(2-isopropylphenyl)-N1,N1-dimethylazetidine-1,3-dicarboxamide] to `COc1cc(Cl)ncc1NC(=O)C1(c2ccccc2C(C)C)CN(C(=O)C2COC2)C1` [Example 19-4, N-(6-chloro-4-methoxypyridin-3-yl)-3-(2-isopropylphenyl)-1-(oxetane-3-carbonyl)azetidine-3-carboxamide], the IC50 rises from 0.074 µM to 0.385 µM (5.2-fold).

`COc1cc(Cl)ncc1NC(=O)C1(c2ccccc2C(C)C)CN(c2ccncc2C)C1` [Example 24-1, N-(6-chloro-4-methoxypyridin-3-yl)-3-(2-isopropylphenyl)-1-(3-methylpyridin-4-yl)azetidine-3-carboxamide] and `COc1cc(Cl)ncc1NC(=O)C1(c2ccccc2C(C)C)CN(c2ccnc(C)c2F)C1` [Example 24-3, N-(6-chloro-4-methoxypyridin-3-yl)-1-(3-fluoro-2-methylpyridin-4-yl)-3-(2-isopropylphenyl)azetidine-3-carboxamide] are the same in IC50: 0.002 µM for the first, 0.002 µM for the second.

Compared with `COc1cc(Cl)ncc1NC(=O)C1(c2ccccc2C(C)C)CN(S(=O)(=O)C2COC2)C1` [Example 20-5, N-(6-chloro-4-methoxypyridin-3-yl)-3-(2-isopropylphenyl)-1-(oxetan-3-ylsulfonyl)azetidine-3-carboxamide], `COc1cc(Cl)ncc1NC(=O)C1(c2ccccc2C(C)C)CN(S(C)(=O)=O)C1` [Example 20-1, N-(6-chloro-4-methoxypyridin-3-yl)-3-(2-isopropylphenyl)-1-(methylsulfonyl)azetidine-3-carboxamide] is 3.1-fold lower in IC50: 0.034 µM for the first, 0.011 µM for the second. The second is the more potent here.

First: COc1cc(Cl)ncc1NC(=O)C1(c2ccccc2C(C)C)CN(C(=O)NCCC(=O)O)C1 [Example 22-14, 3-(3-((6-chloro-4-methoxypyridin-3-yl)carbamoyl)-3-(2-isopropylphenyl)azetidine-1-carboxamido)propanoic acid]
Second: COc1cc(Cl)ncc1NC(=O)C1(c2ccccc2C(C)C)CN(C(=O)CC(C)(C)C(=O)O)C1 [Example 19-18, 4-(3-((6-chloro-4-methoxypyridin-3-yl)carbamoyl)-3-(2-isopropylphenyl)azetidin-1-yl)-2,2-dimethyl-4-oxobutanoic acid]
The IC50 of the first is 2.3-fold higher: 0.204 µM for the first, 0.088 µM for the second.

`COc1cc(Cl)ncc1NC(=O)C1(c2ccccc2C(C)C)CN(S(=O)(=O)NCCO)C1` [Example 21-21, N-(6-chloro-4-methoxypyridin-3-yl)-1-(N-(2-hydroxyethyl)sulfamoyl)-3-(2-isopropylphenyl)azetidine-3-carboxamide] and `COCCOc1cc(Cl)ncc1NC(=O)C1(c2ccccc2C(C)C)CN(S(N)(=O)=O)C1` [Example 21-6, N-(6-chloro-4-(2-methoxyethoxy)pyridin-3-yl)-3-(2-isopropylphenyl)-1-sulfamoylazetidine-3-carboxamide] are within 1.5-fold of each other in IC50: 0.056 µM for the first, 0.044 µM for the second.

`COc1cc(Cl)ncc1NC(=O)C1(c2ccccc2C(C)C)CCN(CCC(C)(C)C(=O)O)CC1` [Example 18-22, 4-(4-((6-chloro-4-methoxypyridin-3-yl)carbamoyl)-4-(2-isopropylphenyl)piperidin-1-yl)-2,2-dimethylbutanoic acid] and `COc1cc(Cl)ncc1NC(=O)C1(c2ccccc2C(C)C)CN(CC2(F)CC2)C1` [Example 18-10, N-(6-chloro-4-methoxypyridin-3-yl)-1-((1-fluorocyclopropyl)methyl)-3-(2-isopropylphenyl)azetidine-3-carboxamide] are within 1.5-fold of each other in IC50: 0.079 µM for the first, 0.076 µM for the second.

First: CCOC(=O)C(C)(C)CCCN1CC(C(=O)Nc2cnc(Cl)cc2OCC)(c2ccccc2C(C)C)C1 [Example 18-26, ethyl 5-(3-((6-chloro-4-ethoxypyridin-3-yl)carbamoyl)-3-(2-isopropylphenyl)azetidin-1-yl)-2,2-dimethylpentanoate]
Second: COc1cc(Cl)ncc1NC(=O)C1(c2ccccc2C(C)C)CN(Cc2cc[nH]n2)C1 [Example 18-13, 1-((1H-pyrazol-3-yl)methyl)-N-(6-chloro-4-methoxypyridin-3-yl)-3-(2-isopropylphenyl)azetidine-3-carboxamide]
The IC50 of the first is 1.8-fold lower: 0.072 µM for the first, 0.129 µM for the second.

`COc1cc(Cl)ncc1NC(=O)C1(c2ccccc2C(C)C)CN(C[C@@H]2COC(C)(C)O2)C1` [Example 18-11, (R)-N-(6-chloro-4-methoxypyridin-3-yl)-1-((2,2-dimethyl-1,3-dioxolan-4-yl)methyl)-3-(2-isopropylphenyl)azetidine-3-carboxamide] and `COc1cc(Cl)ncc1NC(=O)C1(c2ccccc2C(C)C)CN(C(=O)Cc2cc(O)n[nH]2)C1` [Example 19-13, N-(6-chloro-4-methoxypyridin-3-yl)-1-(2-(3-hydroxy-1H-pyrazol-5-yl)acetyl)-3-(2-isopropylphenyl)azetidine-3-carboxamide] are within 1.5-fold of each other in IC50: 0.136 µM for the first, 0.112 µM for the second.

First: COc1ccncc1NC(=O)C1(c2ccccc2C(C)C)CNC1 [Example 2, 3-(2-isopropylphenyl)-N-(4-methoxypyridin-3-yl)azetidine-3-carboxamide]
Second: COc1cc(Cl)ncc1NC(=O)C1(c2ccccc2C(C)C)CN(c2ncc(C(=O)O)cn2)C1 [Example 24-23, 2-(3-((6-chloro-4-methoxypyridin-3-yl)carbamoyl)-3-(2-isopropylphenyl)azetidin-1-yl)pyrimidine-5-carboxylic acid]
The IC50 of the first is 43-fold lower: 0.074 µM for the first, 3.15 µM for the second. The first is the more potent here.

Work on `COc1cc(Cl)ncc1NC(=O)C1(c2ccccc2C(C)C)CN(c2cnc(C(=O)O)cn2)C1` [Example 24-20, 5-(3-((6-chloro-4-methoxypyridin-3-yl)carbamoyl)-3-(2-isopropylphenyl)azetidin-1-yl)pyrazine-2-carboxylic acid] yielded an IC50 of 0.145 µM.
